For 27 compounds, Ki results are on record in US20240239781A1, “1H-PYRAZOLE DERIVATIVES AS SIGMA LIGANDS” (ACONDICIONAMIENTO TARRASENSE, priority 2021, published 2024).

The target of one test is T1, human σ2/TMEM97 receptor (Homo sapiens, UniProt Q5BJF2).
T1 construct: expressed in transfected cells; host or cells: HEK-293
In words: Binding assay to human σ2/TMEM97 receptor ([3H]-DTG, transfected HEK-293 membranes). The settings on record: class scale, read-out: Binding σ-2 Ki. The gist of the method: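 Competition against 10 nM [3H]-DTG (Tris-HCl 50 mM, pH 8.0, 25 °C, 120 min) using 15 μg transfected HEK-293 membrane protein, with 10 μM haloperidol defining NSB. Bound radioactivity counted after filtration; results as single-point % inhibition (1 or 10 μM) or five-point Ki.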

The next test addresses T2, human σ1 receptor (Homo sapiens, UniProt Q99720).
T2 construct: expressed in transfected cells; host or cells: HEK-293
Description: Human σ1 receptor radioligand assay ([3H](+)-pentazocine, transfected HEK-293 membranes). The conditions noted are these: class scale, read-out: Binding σ-1 Ki. The gist of the method: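 Compounds were tested at a single 1 or 10 μM concentration (% inhibition) or at five concentrations to give Ki. They competed with 5 nM [3H](+)-pentazocine for transfected HEK-293 membranes (7 μg) in 50 mM Tris-HCl pH 8 at 37° C for 120 minutes. Nonspecific binding was set with 10 μM haloperidol, and a filtration scintillation read-out was used.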

T2 sequence (Q99720 whole entry): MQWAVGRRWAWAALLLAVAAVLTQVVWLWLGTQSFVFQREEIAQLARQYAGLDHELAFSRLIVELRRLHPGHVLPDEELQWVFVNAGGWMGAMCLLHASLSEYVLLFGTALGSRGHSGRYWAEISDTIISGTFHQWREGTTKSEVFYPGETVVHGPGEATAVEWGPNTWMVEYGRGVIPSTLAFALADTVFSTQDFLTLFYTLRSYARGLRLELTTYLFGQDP
T1 sequence (Q5BJF2 whole entry): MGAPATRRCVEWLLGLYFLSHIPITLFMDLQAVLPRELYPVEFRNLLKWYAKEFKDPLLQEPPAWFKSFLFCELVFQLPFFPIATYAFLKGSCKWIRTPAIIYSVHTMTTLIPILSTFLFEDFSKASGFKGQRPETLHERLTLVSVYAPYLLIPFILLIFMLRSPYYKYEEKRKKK

The Ki is a measure of affinity in units of concentration, obtained from inhibition or displacement. Regarding `CCn1nc(-c2ccon2)c(CC(=O)NC2CC3(CCN(CCC(C)(C)C)CC3)C2)c1Cl` [Example 224, 2-(5-chloro-1-ethyl-3-(isoxazol-3-yl)-1H-pyrazol-4-yl)-N-(7-(3,3-dimethylbutyl)-7-azaspiro[3.5]nonan-2-yl)acetamide], the Ki is less than 100 nM on human σ2/TMEM97 receptor and 100 to 500 nM on human σ1 receptor.

Consider `Cn1nc(-c2cccc(O)n2)c(C(=O)N2CCC3(CCN(CCC(C)(C)C)CC3)CC2)c1Cl` [Example 124, (5-Chloro-3-(6-hydroxypyridin-2-yl)-1-methyl-1H-pyrazol-4-yl)(9-(3,3-dimethylbutyl)-3,9-diazaspiro[5.5]undecan-3-yl)methanone], for which the Ki on human σ2/TMEM97 receptor was 100 to 500 nM; on human σ1 receptor, more than 1000 nM.

Regarding `CC(C)CCNC1CCCCN(Cc2c(-c3nccn3C)nn(C)c2Cl)C1` (stereo not drawn) [Example 32, 1-((5-Chloro-1-methyl-3-(1-methyl-1H-imidazol-2-yl)-1H-pyrazol-4-yl)methyl)-N-isopentylazepan-3-amine], the Ki at human σ2/TMEM97 receptor was 100 to 500 nM; at human σ1 receptor it was more than 1000 nM.

Consider `Cc1cc(-c2nn(C)c(Cl)c2C(=O)N2CCCC3(CCN(CCC(C)(C)C)CC3)C2)no1` [Example 92, (5-Chloro-1-methyl-3-(5-methylisoxazol-3-yl)-1H-pyrazol-4-yl)(9-(3,3-dimethylbutyl)-2,9-diazaspiro[5.5]undecan-2-yl)methanone], for which the Ki on human σ2/TMEM97 receptor and at human σ1 receptor was less than 100 nM in each case.

Regarding `Cc1cc(-c2nn(C)c(Cl)c2C(=O)N2CCCCC(NCCC(C)C)C2)no1` (stereo not drawn) [Example 84, (5-Chloro-1-methyl-3-(5-methylisoxazol-3-yl)-1H-pyrazol-4-yl)(3-(isopentylamino)azepan-1-yl)methanone], the Ki is 100 to 500 nM at human σ2/TMEM97 receptor and more than 1000 nM at human σ1 receptor.

With `COc1ccc(-c2nn(C)c(Cl)c2CN2CCCCC(NCCC(C)(C)C)C2)nc1` (stereo not drawn) [Example 35, 1-((5-Chloro-3-(5-methoxypyridin-2-yl)-1-methyl-1H-pyrazol-4-yl)methyl)-N-(3,3-dimethylbutyl)azepan-3-amine], the Ki is more than 1000 nM on human σ2/TMEM97 receptor and 500 to 1000 nM on human σ1 receptor.

On to `Cc1cc(-c2nn(C)c(Cl)c2C(=O)NC2CC3(CCN(CCC(C)(C)C)CC3)C2)no1` [Example 106, 5-Chloro-N-(7-(3,3-dimethylbutyl)-7-azaspiro[3.5]nonan-2-yl)-1-methyl-3-(5-methylisoxazol-3-yl)-1H-pyrazole-4-carboxamide], for which the Ki at human σ2/TMEM97 receptor is less than 100 nM; at human σ1 receptor, 100 to 500 nM.

For `Cc1cc(-c2nn(C)c(Cl)c2CN2CC[C@]3(CCN(CCC(C)(C)C)C3)C2)no1` [Example 69, (S)-3-(5-Chloro-4-((7-(3,3-dimethylbutyl)-2,7-diazaspiro[4.4]nonan-2-yl)methyl)-1-methyl-1H-pyrazol-3-yl)-5-methylisoxazole], the Ki at human σ2/TMEM97 receptor and at human σ1 receptor was less than 100 nM each time.

As for `Cc1cc(-c2nn(C)c(Cl)c2CN2CCC(NCCC(C)C)C2)no1` (stereo not drawn) [Example 11, 1-((5-Chloro-1-methyl-3-(5-methylisoxazol-3-yl)-1H-pyrazol-4-yl)methyl)-N-isopentylpyrrolidin-3-amine], the Ki at human σ2/TMEM97 receptor lay in the range of 100 to 500 nM; at human σ1 receptor, 500 to 1000 nM.

Turning to `CCn1nc(-c2ccon2)c(CC(=O)NCC2CCCN(CCC(C)(C)C)C2)c1Cl` (stereo not drawn) [Example 212, 2-(5-Chloro-1-ethyl-3-(isoxazol-3-yl)-1H-pyrazol-4-yl)-N-((1-(3,3-dimethylbutyl)piperidin-3-yl)methyl)acetamide], the Ki on human σ2/TMEM97 receptor is 100 to 500 nM; at human σ1 receptor, less than 100 nM.

On to `Cn1nc(-c2cccc(C(F)(F)F)n2)c(C(=O)NC2CCN(CCC(C)(C)C)CC2)c1Cl` [Example 167, 5-Chloro-N-(1-(3,3-dimethylbutyl)piperidin-4-yl)-1-methyl-3-(6-(trifluoromethyl)pyridin-2-yl)-1H-pyrazole-4-carboxamide], for which the Ki on human σ2/TMEM97 receptor and on human σ1 receptor was less than 100 nM throughout.

As for `CCn1nc(-c2cc(C)on2)c(C(=O)NC2CCCCN(CCC(C)(C)C)C2)c1Cl` (stereo not drawn) [Example 206, 5-Chloro-N-(1-(3,3-dimethylbutyl)azepan-3-yl)-1-ethyl-3-(5-methylisoxazol-3-yl)-1H-pyrazole-4-carboxamide], the Ki at human σ2/TMEM97 receptor and on human σ1 receptor was 500 to 1000 nM in each case.

On to `CCc1cc(-c2nn(CC)c(Cl)c2C(=O)NC2CCC3(CC2)CN(CCC(C)(C)C)C3)no1` [Example 137, 5-Chloro-N-(2-(3,3-dimethylbutyl)-2-azaspiro[3.5]nonan-7-yl)-1-ethyl-3-(5-ethylisoxazol-3-yl)-1H-pyrazole-4-carboxamide], for which the Ki at human σ2/TMEM97 receptor and on human σ1 receptor was less than 100 nM in each case.

For the compound `CCn1nc(-c2cccc(C(F)(F)F)n2)c(C(=O)N2CCC3(CCN(CCC(C)(C)C)CC3)CC2)c1Cl` [Example 199, (5-Chloro-1-ethyl-3-(6-(trifluoromethyl)pyridin-2-yl)-1H-pyrazol-4-yl)(9-(3,3-dimethylbutyl)-3,9-diazaspiro[5.5]undecan-3-yl)methanone], the inhibition constant (Ki) on human σ2/TMEM97 receptor was less than 100 nM; at human σ1 receptor it was 100 to 500 nM.

In the case of `Cc1cc(-c2nn(C)c(Cl)c2C(=O)N2CCC3(CCN(Cc4ccc(C#N)c(F)c4)CC3)CC2)no1` [Example 131, 4-((9-(5-Chloro-1-methyl-3-(5-methylisoxazol-3-yl)-1H-pyrazole-4-carbonyl)-3,9-diazaspiro[5.5]undecan-3-yl)methyl)-2-fluorobenzonitrile], the Ki at human σ2/TMEM97 receptor and at human σ1 receptor was 500 to 1000 nM each time.

Consider `Cc1cc(-c2nn(C)c(Cl)c2C(=O)N2CC3(CCN(CCC(C)(C)C)CC3)C2)no1` [Example 104, (5-Chloro-1-methyl-3-(5-methylisoxazol-3-yl)-1H-pyrazol-4-yl)(7-(3,3-dimethylbutyl)-2,7-diazaspiro[3.5]nonan-2-yl)methanone], for which the Ki on human σ2/TMEM97 receptor and at human σ1 receptor was 100 to 500 nM each time.

As for `Cn1nc(-c2cccc(C(F)(F)F)n2)c(C(=O)N2CCCC3(CCN(CCC(C)(C)C)CC3)C2)c1Cl` [Example 155, (5-Chloro-1-methyl-3-(6-(trifluoromethyl)pyridin-2-yl)-1H-pyrazol-4-yl)(9-(3,3-dimethylbutyl)-2,9-diazaspiro[5.5]undecan-2-yl)methanone], the Ki at human σ2/TMEM97 receptor is less than 100 nM; on human σ1 receptor, 100 to 500 nM.

For the compound `Cc1onc(-c2nn(C)c(Cl)c2CN2CCCCC(NCCC(C)C)C2)c1C` (stereo not drawn) [Example 37, 1-((5-Chloro-3-(4,5-dimethylisoxazol-3-yl)-1-methyl-1H-pyrazol-4-yl)methyl)-N-isopentylazepan-3-amine], the Ki on human σ2/TMEM97 receptor and on human σ1 receptor was 100 to 500 nM each time.

In the case of `Cc1cc(-c2nn(C)c(Cl)c2CN2CCC(CNCCC(C)C)C2)no1` (stereo not drawn) [Example 29, N-((1-((5-Chloro-1-methyl-3-(5-methylisoxazol-3-yl)-1H-pyrazol-4-yl)methyl)pyrrolidin-3-yl)methyl)-3-methylbutan-1-amine], the Ki at human σ2/TMEM97 receptor lay within 100 to 500 nM; on human σ1 receptor it was 500 to 1000 nM.

In the case of `CCn1nc(-c2cc(C)on2)c(CN2CCCCC(NCCC(C)C)C2)c1Cl` (stereo not drawn) [Example 14, 1-((5-Chloro-1-ethyl-3-(5-methylisoxazol-3-yl)-1H-pyrazol-4-yl)methyl)-N-isopentylazepan-3-amine], the results for the Ki on human σ2/TMEM97 receptor and at human σ1 receptor were more than 1000 nM and 100 to 500 nM, respectively.

On to `Cc1cc(-c2nn(C)c(Cl)c2C(=O)N2CCC3(CCN(CCC(C)(C)C)CC3)CC2)no1` [Example 88, (5-Chloro-1-methyl-3-(5-methylisoxazol-3-yl)-1H-pyrazol-4-yl)(9-(3,3-dimethylbutyl)-3,9-diazaspiro[5.5]undecan-3-yl)methanone], for which the Ki is less than 100 nM at human σ2/TMEM97 receptor and 500 to 1000 nM at human σ1 receptor.

Consider `CCn1cc(-c2nn(C)c(Cl)c2C(=O)NC2CCC3(CC2)CCN(CCC(C)(C)C)CC3)cn1` [Example 146, 5-Chloro-N-(3-(3,3-dimethylbutyl)-3-azaspiro[5.5]undecan-9-yl)-1′-ethyl-1-methyl-1H,1′H-[3,4′-bipyrazole]-4-carboxamide], for which the Ki is less than 100 nM at human σ2/TMEM97 receptor and 500 to 1000 nM on human σ1 receptor.

On to `CCn1nc(-c2ccon2)c(C(=O)N2CCCC3(CN(CCC(C)(C)C)C3)C2)c1Cl` [Example 195, (5-Chloro-1-ethyl-3-(isoxazol-3-yl)-1H-pyrazol-4-yl)(2-(3,3-dimethylbutyl)-2,6-diazaspiro[3.5]nonan-6-yl)methanone], for which the results for the Ki on human σ2/TMEM97 receptor and at human σ1 receptor were less than 100 nM and 500 to 1000 nM, respectively.

Consider `CC(C)CCNC1CCCCN(Cc2c(-c3cccnc3)nn(C)c2Cl)C1` (stereo not drawn) [Example 31, 1-((5-Chloro-1-methyl-3-(pyridin-3-yl)-1H-pyrazol-4-yl)methyl)-N-isopentylazepan-3-amine], for which the Ki at human σ2/TMEM97 receptor is more than 1000 nM; on human σ1 receptor, 500 to 1000 nM.

For `Cc1cc(-c2nn(C)c(Cl)c2C(=O)NC2CC3(CCN(Cc4ccccc4)CC3)C2)no1` [Example 153, N-(7-Benzyl-7-azaspiro[3.5]nonan-2-yl)-5-chloro-1-methyl-3-(5-methylisoxazol-3-yl)-1H-pyrazole-4-carboxamide], the Ki at human σ2/TMEM97 receptor and at human σ1 receptor was 100 to 500 nM in each case.

With `Cc1cc(-c2nn(C)c(Cl)c2C(=O)N2CCCC(CNCC(C)C)C2)no1` (stereo not drawn) [Example 95, (5-Chloro-1-methyl-3-(5-methylisoxazol-3-yl)-1H-pyrazol-4-yl)(3-((isobutylamino)methyl)piperidin-1-yl)methanone], the Ki on human σ2/TMEM97 receptor and on human σ1 receptor was more than 1000 nM throughout.

For the compound `CC(C)c1cc(-c2nn(C)c(Cl)c2C(=O)N2CCCC3(CCN(CCC(C)(C)C)CC3)C2)no1` [Example 132, (5-Chloro-3-(5-isopropylisoxazol-3-yl)-1-methyl-1H-pyrazol-4-yl)(9-(3,3-dimethylbutyl)-2,9-diazaspiro[5.5]undecan-2-yl)methanone], the values for the Ki at human σ2/TMEM97 receptor and on human σ1 receptor were less than 100 nM and 100 to 500 nM, respectively.
